Test results as given in US8697376B2, “Synthetic protease substrates, assay methods using such substrates and kits for practicing the assay” (Lifesensors, INc., priority 2010, dated 2014).

Tested on: DUBs immobilized on a Nexterion slide H
Test: Microarray-based assay: cleavage and label transfer to immobilized DUBs
Format: biochemical
Conditions: 35 DUBs arrayed as triplicate spots; FIG. 5
Experimental: Since one of the primary uses for the substrates of the invention is localization of active deubiquitylases immobilized in a microarray-type format, i.e. solid phase assay, each of the substrates was tested for its ability to be cleaved and subsequently transfer label to DUBs immobilized on a Nexterion slide H (Schott). Thirty-five (35) DUBs were arrayed as a series of triplicate spots on the slide (see Table 6 for a map of the array) Three identical arrays were constructed on each slide. Several features that were common amongst each array on a given slide and between slides are shown boxed in red and numbered 1-7. […] It should be noted that the enzymes (and antibodies) were coupled 1) at different concentrations and 2) by covalent attachment through surface exposed lysines.

## ubiquitin-vinylsulfone
  immobilized enzymes labeled (positive features) on the microarray: all of the immobilized proteins were labeled
